Test results from PubChem BioAssay (NCI).
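1) Cells in 96-well plates. 2) Compound, 48 h, 5 concentrations. 3) Linear interpolation between surrounding doses. 4) Unreached endpoint = highest concentration. At the TGI there is no net growth.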

What was measured:
Assay in all cases: NCI tumour cell line growth inhibition, 48 h
ACHN renal = system: ACHN renal
CCRF-CEM leukemia = system: CCRF-CEM leukemia
EKVX NSCLC = system: EKVX NSCLC
HCC-2998 colon = system: HCC-2998 colon
HOP-62 NSCLC = system: HOP-62 NSCLC
HOP-92 NSCLC = system: HOP-92 NSCLC
K-562 leukemia = system: K-562 leukemia
MOLT-4 leukemia = system: MOLT-4 leukemia
NCI-H460 lung = system: NCI-H460 lung
OVCAR-3 ovarian = system: OVCAR-3 ovarian
OVCAR-5 ovarian = system: OVCAR-5 ovarian
SF-295 CNS = system: SF-295 CNS
SNB-19 CNS = system: SNB-19 CNS
SNB-75 CNS = system: SNB-75 CNS
SR leukemia = system: SR leukemia
U251 CNS = system: U251 CNS
UO-31 renal = system: UO-31 renal
A498 renal = system: A498 renal
DU-145 prostate = system: DU-145 prostate

Row | Structure (SMILES) | TGI (ACHN renal) | TGI (CCRF-CEM leukemia) | TGI (EKVX NSCLC) | TGI (HCC-2998 colon) | TGI (HOP-62 NSCLC) | TGI (HOP-92 NSCLC) | TGI (K-562 leukemia) | TGI (MOLT-4 leukemia) | TGI (NCI-H460 lung) | TGI (OVCAR-3 ovarian) | TGI (OVCAR-5 ovarian) | TGI (SF-295 CNS) | TGI (SNB-19 CNS) | TGI (SNB-75 CNS) | TGI (SR leukemia) | TGI (U251 CNS) | TGI (UO-31 renal) | TGI (A498 renal) | TGI (DU-145 prostate)
1 | CCOc1ccc(/C(Cl)=C(\C=O)c2ccc(OC)c(OC)c2)cc1OCC | > 100 µM | > 100 µM | > 100 µM | > 100 µM | > 100 µM | > 100 µM | > 100 µM | > 100 µM | > 100 µM | > 100 µM | > 100 µM | > 100 µM | > 100 µM | > 100 µM | 50.8 µM | 97.5 µM | > 100 µM | – | –
2 | C=CCNC(=O)N(CCCC(NC(C)=O)C(=O)NCc1ccccc1)Cc1ccccc1 (centres undefined) | > 100 µM | > 100 µM | > 100 µM | – | > 100 µM | > 100 µM | > 100 µM | > 100 µM | > 100 µM | > 100 µM | > 100 µM | > 100 µM | > 100 µM | > 100 µM | – | > 100 µM | > 100 µM | > 100 µM | –
3 | CC1CN(c2ccc(Cl)cc2)CC(C)OC(=O)O1 (centres undefined) | > 100 µM | > 100 µM | > 100 µM | > 100 µM | > 100 µM | > 100 µM | > 100 µM | – | > 100 µM | > 100 µM | > 100 µM | > 100 µM | > 100 µM | > 100 µM | > 100 µM | > 100 µM | > 100 µM | – | –
4 | CCOC(=O)/C=C/n1c2ccccc2c(=O)c2ccccc21 | > 100 µM | > 100 µM | > 100 µM | > 100 µM | > 100 µM | – | > 100 µM | > 100 µM | > 100 µM | > 100 µM | – | > 100 µM | > 100 µM | – | > 100 µM | > 100 µM | > 100 µM | > 100 µM | –
5 | COc1ccc(-n2c(=O)[nH]n(C(C)=O)c2=O)cc1 | > 100 µM | > 100 µM | > 100 µM | – | – | > 100 µM | > 100 µM | > 100 µM | > 100 µM | – | > 100 µM | > 100 µM | > 100 µM | > 100 µM | > 100 µM | > 100 µM | > 100 µM | > 100 µM | > 100 µM
6 | COc1cc([C@@H]2c3cc4c(cc3[C@@H](OC(=O)c3ccc(N)cc3)C3COC(=O)[C@@H]32)OCO4)cc(OC)c1O (some centres undefined) | 28.2 µM | > 95 µM | > 95 µM | 36.3 µM | 26.9 µM | 20.7 µM | > 95 µM | 67.4 µM | 46.7 µM | 35 µM | > 95 µM | > 95 µM | > 95 µM | 36.4 µM | – | 28.7 µM | 34.5 µM | 31.5 µM | –
7 | CN1c2ccccc2N(C(=O)c2ccc(Cl)cc2)C(CC(=O)O)c2cccn21 (centres undefined) | > 100 µM | > 100 µM | > 100 µM | > 100 µM | > 100 µM | > 100 µM | > 100 µM | > 100 µM | > 100 µM | > 100 µM | > 100 µM | > 100 µM | > 100 µM | > 100 µM | – | – | > 100 µM | > 100 µM | –
8 | COC(=O)/C(=N\NC(=O)C[N+](C)(C)C)C(C(=O)OC)C(=O)C(=O)Nc1ccccc1C(N)=O (centres undefined) | > 100 µM | > 100 µM | > 100 µM | > 100 µM | > 100 µM | – | > 100 µM | > 100 µM | > 100 µM | > 100 µM | > 100 µM | > 100 µM | > 100 µM | > 100 µM | > 100 µM | > 100 µM | > 100 µM | > 100 µM | –
9 | COc1ccc(N=Cc2ccc(N(CCC#N)S(=O)(=O)c3ccccc3)cc2)cc1 | > 100 µM | > 100 µM | > 100 µM | – | > 100 µM | > 100 µM | > 100 µM | > 100 µM | > 100 µM | > 100 µM | > 100 µM | > 100 µM | > 100 µM | > 100 µM | > 100 µM | > 100 µM | > 100 µM | > 100 µM | –
10 | Nc1nc(SCc2ccc([N+](=O)[O-])cc2)nc2c1ncn2C1OC(CO)C(O)C1O (centres undefined) | > 100 µM | > 100 µM | > 100 µM | > 100 µM | > 100 µM | – | > 100 µM | > 100 µM | > 100 µM | > 100 µM | > 100 µM | > 100 µM | > 100 µM | – | > 100 µM | > 100 µM | > 100 µM | > 100 µM | –
11 | Cc1ccc([N+](=O)[O-])cc1NC(=O)/C(=N/NC(=S)NN)C1SC(=S)NC1=O (centres undefined) | > 100 µM | > 100 µM | > 100 µM | – | > 100 µM | > 100 µM | > 100 µM | > 100 µM | > 100 µM | – | > 100 µM | > 100 µM | > 100 µM | > 100 µM | > 100 µM | > 100 µM | > 100 µM | > 100 µM | –
12 | CC(=O)OCC1OC(c2nc3ccccc3s2)=CC(OC(C)=O)C1OC(C)=O (centres undefined) | > 100 µM | > 100 µM | > 100 µM | – | > 100 µM | – | > 100 µM | – | > 100 µM | > 100 µM | > 100 µM | > 100 µM | > 100 µM | > 100 µM | > 100 µM | > 100 µM | > 100 µM | > 100 µM | > 100 µM
13 | CN(C)CCCNc1ccc([N+](=O)[O-])c2nc3ccccc3c(N)c12 | 1.61 µM | 2.99 µM | 2.35 µM | – | > 10 µM | 5.08 µM | 2.27 µM | 3.42 µM | 1.38 µM | 5.05 µM | > 10 µM | 1.53 µM | 3.23 µM | – | > 10 µM | 2.12 µM | 2.97 µM | 6.92 µM | 1.75 µM
14 | CCN(CC)CCOc1ccc(CCc2cc(OC)c(OC)c(OC)c2)cc1 | > 100 µM | > 100 µM | > 100 µM | – | 81.4 µM | 82.6 µM | > 100 µM | 85.2 µM | > 100 µM | > 100 µM | 65.3 µM | 50.5 µM | > 100 µM | 94.5 µM | > 100 µM | > 100 µM | > 100 µM | 98.7 µM | –
